The record followed here is patent US9944597B2, “Polysubstituted pyrroles having microtubule-disrupting, cytotoxic and antitumor activities and methods of use thereof” (THE BOARD OF REGENTS OF THE UNIVERSITY OF TEXAS SYSTEM, priority 2013, dated 2018).

Like-named read-outs stand apart in the source and are kept apart here.

In series [1] the test system is HeLa (human cervical cancer cells). Briefly: Antiproliferative SRB assay, HeLa. Format: cell-based. Here is the method:
(§1) Cell Culture. Various representative cancer and other cell lines were sourced and grown as described previously [Mooberry, S. L., et al., Mol. Pharm. 72, 132-140 (2007)]. MDA-MB-435 (human melanoma cancer cells), and MDA-MB-231 (human breast cancer cells) were grown in IMEM Richter's Medium (Life Technologies, Grand Island, N.Y.) with 10% FBS (Hyclone, Logan, Utah) and 25 μg/mL gentamicin sulfate (Life Technologies). A-10 (embryonic rat vascular smooth muscle cells) and HeLa (human cervical cancer cells), SK-OV-3 (human ovarian cancer cells) and SK-OV-3-MDR-1-M6/6 (a clone of the SK-OV-3 that was generated from SK-OV-3 cells by adenovirus-mediated expression of MDR1) were grown in Basal Medium Eagle (BME, Sigma-Aldrich, St. Louis, Mo.) containing Earle's salts, 50 μg/ml gentamicin sulfate, and 10% FBS. HeLa cells (a single-cell clone derived from transduction of HeLa cells with wild-type (WT) βIII-tubulin) were grown in Dulbecco's Modified Eagle's Medium (DMEM, Life Technologies) containing 50 μg/mL gentamicin sulfate and 10% FBS.
(§2) Antiproliferative Effects. The pyrrole compounds were evaluated for their antiproliferative effects in a panel of cancer cell lines. Cells were plated into 96-well plates at predetermined densities and allowed to attach and proliferate for 24 hr, and then the compounds were added. After a 48 hr exposure to the compounds, the cells were fixed with trichloroacetic acid and cellular protein was determined using the sulforhodamine B (SRB) assay (Skehan et al., J. Natl. Cancer Inst. 82, 1107-12, (1990); Boyd and Paull Drug Devel. Res. 34, 91-109, (1995)). Concentration response curves were constructed, and the IC50 (the concentration required to inhibit proliferation by 50%) values were determined from the linear portions of the log concentration-response curves as described previously [Tinley, T. L., et al., Cancer Res. 63, 3211-3220, (2003)] as shown in Table 48.
(§3) First, drug resistance mediated by the expression of βIII tubulin was evaluated in an isogenic HeLa cell line pair. Expression of the βIII tubulin isotype is associated with clinical drug resistance to the taxanes in ovarian cancer, non small-cell lung cancer and breast cancer [Galmarini, C. M., et al., Clin. Cancer Res. 14, 4511-4516 (2008)]. Secondly, drug resistance mediated by the expression of the drug efflux pump protein, Pgp, was evaluated in the isogenic SK-OV-3 cell line pair. The expression of Pgp can lead to lower intracellular drug concentrations and diminished cytotoxic effects both in vitro and in vivo. All tubulin-binding anticancer drugs used currently in the clinic, except cabazitaxel, are substrates for Pgp, thus limiting their utility in drug resistant tumors [Penson, R. T., et al., Gynecol. Oncol. 93, 98-106 (2004)]. Differences in sensitivity between the parent and transformed cell line, indicative of resistance, was determined by calculating relative resistance (Rr) values in the two pairs of isogenic cell lines (dividing the IC50 of the expressing cell line by the IC50 of the parental cell line).

The test system of series [2] is HeLa WT-β-III cells. Description: Antiproliferative SRB assay, βIII-tubulin expressing HeLa. The series is classed as cell-based, human. The note with it: for IC50: Table 49, βIII tubulin expressing line, 48 hr, SRB assay; for Rr (β-III): relative resistance: IC50 of expressing line divided by IC50 of parental HeLa. How it is done: as §1, §2, §3
The test system of series [3] is A-10 cells. Description: Cellular microtubule loss by indirect immunofluorescence. Format: cell-based, rat. The note with it: read-out: EC50 Values (nM) for Microtubule Loss in A-10 cells. How it is done:
The effects of representative compounds on cellular microtubules were evaluated in A-10 (embryonic rat vascular smooth muscle cell line) cells using indirect immunofluorescence techniques as previously described (Tinley et al., Cancer Res. 63, 3211-20 (2003)). Cells were visualized using a Nikon Eclipse 80i fluorescence microscope and NIS Elements software. Changes in both interphase and mitotic microtubules were noted and photographed. The EC50 values, the concentration that causes approximately 50% loss of interphase microtubules was determined by evaluating a range of concentrations of each compound and the percent cellular microtubule depolymerization that was observed visually at each concentration was noted.
Microtubules were visualized by indirect immunofluorescence using a β-tubulin antibody, and the DNA was visualized with DAPI. A representative concentration response curve for NT-7-16 is also shown in FIG. 1 that was used to calculate its corresponding EC50 for microtubule loss. Concentration response curves for microtubule loss were plotted using data from at least three experiments for each compound and the corresponding EC50 values for microtubule loss are presented in Table 50.

The test system of series [4] is MDA-MB-435 (human melanoma cancer cells). Briefly: Antiproliferative SRB assay, MDA-MB-435. The note with it: read-out: MDA-MB-435 Anti-Proliferative Activity, IC50. The series is classed as cell-based. How it is done: as §1, §2
The test system of series [5] is SK-OV-3 (human ovarian cancer cells). Description: Antiproliferative SRB assay, SK-OV-3. Format: cell-based. Here is the method:
as §1, §2
as §3, with “The expression of Pgp can lead to lower intracellular drug concentrations and diminished cytotoxic effects both in vitro and in vivo.” left out

In series [6] the test system is SK-OV-3-MDR-1-6/6 cells. Briefly: Antiproliferative SRB assay, Pgp expressing SK-OV-3. The series is classed as cell-based, human. The note with it: for IC50: Table 49, Pgp expressing line, 48 hr, SRB assay; for Rr (Pgp): relative resistance: IC50 of expressing line divided by IC50 of parental SK-OV-3. How it is done: as §1, §2
as §3, with “The expression of Pgp can lead to lower intracellular drug concentrations and diminished cytotoxic effects both in vitro and in vivo.” left out

Where [7] appears, read: Table 49, parental line, 48 hr, read-out: HeLa IC50.
[8] abbreviates: Table 50, concentration causing approximately 50% loss of interphase microtubules.
[9] abbreviates: Table 49, parental line, 48 hr, read-out: SK-OV-3 IC50.
Where [10] appears, read: Homo sapiens, HeLa, Table 48, 48 hr exposure, read-out: HeLa Anti-Proliferative Activity, IC50.
Where [11] appears, read: Homo sapiens, HeLa, Table 49, parental line, 48 hr, read-out: HeLa IC50.
Where [12] appears, read: Rattus norvegicus, A10, Table 50, concentration causing approximately 50% loss of interphase microtubules.
Setting [13] is: Homo sapiens, MDA-MB-435, Table 48, 48 hr exposure, SRB assay.
The mark [14] stands for this setting: Homo sapiens, MDA-MB-435, Table 52.
The mark [15] stands for this setting: Homo sapiens, SK-OV-3, Table 48, 48 hr exposure, read-out: SK-OV-3 Anti-Proliferative Activity, IC50.
[16] abbreviates: Homo sapiens, SK-OV-3, Table 49, parental line, 48 hr, read-out: SK-OV-3 IC50.

As for “Cis-3-Bromo-4-(2,3,4-trimethoxyphenyl)-5-oximino-1H-pyrrole 2-carboxylic acid ethyl ester [Example 10b]”, the concentration for half-maximal inhibition (IC50) in series [1] (Table 48, 48 hr exposure, read-out: HeLa Anti-Proliferative Activity, IC50) amounted to 29.4 ± 1 nM; in series [1] (setting [7]) it was 29.4 ± 1 nM; in series [2] it was 31.3 ± 0.5 nM; in series [4] (Table 48, 48 hr exposure, SRB assay), 25.3 ± 3.1 nM; in series [4] (Table 52), 25.3 ± 3.1 nM; in series [5] (Table 48, 48 hr exposure, read-out: SK-OV-3 Anti-Proliferative Activity, IC50), 33.7 ± 1.3 nM. In addition, the figures for the IC50 in series [5] (setting [9]) and in series [6] were 33.7 ± 1.3 nM and 49.6 ± 2.4 nM, respectively. For the same compound, in series [2], the “Rr (β-III)” value is 1.1. Moreover, the concentration giving a half-maximal response (EC50) in series [3] (setting [8]) and in series [3] (Table 52) was 108 nM each time. Also, in series [6], the “Rr (Pgp)” value amounted to 1.5.

As to `CCOC(=O)c1[nH]c(CO)c(-c2ccc(OC)c(OC)c2OC)c1Br` [Example 5, 3-Bromo-5-(hydroxymethyl)-4-(2,3,4-trimethoxyphenyl)-1H-pyrrole 2-carboxylic acid ethyl ester], the IC50 was determined as 33.4 ± 0.8 nM in series [1] (setting [10]); 33.4 ± 0.8 nM in series [1] (setting [11]); 27.4 ± 3.1 nM in series [2] (Homo sapiens, HeLa); 25.7 ± 0.8 nM in series [4] (setting [13]); 25.7 ± 0.8 nM in series [4] (setting [14]); 37.4 ± 1.3 nM in series [5] (setting [15]). In addition, the IC50 in series [5] (setting [16]) amounted to 37.4 ± 1.3 nM; in series [6] (Homo sapiens, SK-OV-3), 46.6 ± 2.1 nM. For the same compound, the “Rr (β-III)” value in series [2] was 0.8. Further, the EC50 in series [3] (setting [12]) is 76 nM. Also, in series [6], the “Rr (Pgp)” value is given as 1.2.

As to `CCOC(=O)c1[nH]c(/C=C\C(=O)OC)c(-c2ccc(OC)c(OC)c2OC)c1Br` [Example 8a, Cis-3-Bromo-5-(3-methoxy-3-oxoprop-1-en-1-yl)-4-(2,3,4-trimethoxyphenyl)-1H-pyrrole-2-carboxylic acid ethyl ester], the concentration for half-maximal inhibition (IC50) stood at 14.8 ± 0.2 nM in series [1] (setting [10]); 14.8 ± 0.2 nM in series [1] (setting [11]); 26 ± 1 nM in series [2] (Homo sapiens, HeLa); 23.9 ± 1.2 nM in series [4] (setting [13]); 23.9 ± 1.2 nM in series [4] (setting [14]); 16.4 ± 0.9 nM in series [5] (setting [15]). The IC50 in series [5] (setting [16]) worked out at 16.4 ± 0.9 nM; in series [6] (Homo sapiens, SK-OV-3) it was 10.4 ± 0.9 nM. The “Rr (β-III)” value in series [2] is 1.8. Further, the concentration giving a half-maximal response (EC50) in series [3] (setting [12]) amounted to 55 nM. Further, in series [6], the “Rr (Pgp)” value was determined as 0.6.

Turning to `C=Cc1[nH]c(C(=O)OCC)c(Br)c1-c1ccc(OC)c(OC)c1OC` [Example 7, 3-Bromo-5-vinyl-4-(2,3,4-trimethoxyphenyl)-1H-pyrrole 2-carboxylic acid ethyl ester], the IC50 in series [1] (setting [10]) is 23.8 ± 1.7 nM; in series [1] (setting [11]), 23.8 ± 1.7 nM; in series [2] (Homo sapiens, HeLa), 20.5 ± 0.8 nM; in series [4] (setting [13]) it was 17.6 ± 1 nM; in series [4] (setting [14]), 17.6 ± 1 nM; in series [5] (setting [15]), 26.6 ± 1.1 nM. Also, the IC50 was 26.6 ± 1.1 nM in series [5] (setting [16]) and 28.1 ± 1.9 nM in series [6] (Homo sapiens, SK-OV-3). Moreover, in series [2], the “Rr (β-III)” value is 0.9. Moreover, the 50% effective concentration (EC50) in series [3] (setting [12]) is 54 nM. Besides, the “Rr (Pgp)” value in series [6] amounted to 1.1.

In the case of `CCOC(=O)c1[nH]c(C=NO)c(-c2ccc(OC)c(OC)c2OC)c1Br` [Example 10c], the half-inhibitory concentration (IC50) came to 18 ± 0.9 nM in series [1] (setting [7]); 25 ± 1.4 nM in series [2]; 14 ± 0.8 nM in series [4] (Table 52); 23.1 ± 0.5 nM in series [5] (setting [9]); 41.6 ± 1.9 nM in series [6]. The “Rr (β-III)” value in series [2] is 1.4. Further, the concentration for a half-maximal effect (EC50) in series [3] (setting [8]) and in series [3] (Table 52) was 56.2 nM in each case. Further, the “Rr (Pgp)” value in series [6] was determined as 1.8.

In turn, `CCOC(=O)c1[nH]c(CNCCNC(=O)OC(C)(C)C)c(-c2ccc(OC)c(OC)c2OC)c1Br` [Example 19, 3-Bromo-5-[((N-2-tert-butoxycarbonylamino)-ethylamino)-methyl]-4-(2,3,4-trimethoxyphenyl)-1H-pyrrole 2-carboxylic acid ethyl ester] yielded a melting point of 235 to 237 °C.

For `CCOC(=O)c1[nH]c(/C=C/C(=O)OC)c(-c2ccc(OC)c(OC)c2OC)c1Br` [Example 8b, Trans-3-Bromo-5-(3-methoxy-3-oxoprop-1-en-1-yl)-4-(2,3,4-trimethoxyphenyl)-1H-pyrrole-2-carboxylic acid ethyl ester], the concentration for half-maximal inhibition (IC50) came to 10.9 ± 0.3 nM in series [1] (setting [10]); 10.9 ± 0.3 nM in series [1] (setting [11]); 19.4 ± 0.4 nM in series [2] (Homo sapiens, HeLa); 9.3 ± 0.3 nM in series [4] (setting [13]); 9.3 ± 0.3 nM in series [4] (setting [14]); 22.3 ± 0.5 nM in series [5] (setting [15]). The IC50 in series [5] (setting [16]) was 22.3 ± 0.5 nM; in series [6] (Homo sapiens, SK-OV-3), 26.7 ± 0.3 nM. In addition, the “Rr (β-III)” value in series [2] is listed as 1.8. Also, the EC50 in series [3] (setting [12]) was 24 nM. The “Rr (Pgp)” value in series [6] is listed as 1.2.

`CCOC(=O)c1[nH]c(CNCCN)c(-c2ccc(OC)c(OC)c2OC)c1Br` [Example 20, 5-[N-((2-Aminoethyl)amino)methyl]-3-Bromo-4-(2,3,4-trimethoxyphenyl)-1H-pyrrole 2-carboxylic acid ethyl ester]: the melting point lay within 135 to 137 °C.

As to `CCOC(=O)c1cc(-c2ccc(OC)c(OC)c2OC)c(C=O)[nH]1` [Example 1, 4-(2,3,4-trimethoxyphenyl)-5-formyl-1H-pyrrole 2-carboxylic acid ethyl ester], the melting point lay within 138 to 140 °C.
